Results as given in PubChem BioAssay AID2060618 (Molecular Pharmacology Branch, DTP, NCI, 2025).

System: 454973-116-R2-J3-PDC spheroids, percent test/control viability
Test: Anticancer human tumor 454973-116-R2-J3-PDC patient-derived pancreatic carcinoma cell line growth inhibition [CLK]
Details: spheroids with HUVEC and MSC; for IC50: curve of first compound; for viability, T/C: stronger effect = lower value
How it was run: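 Patient-derived tumor cells grown as complex spheroids with HUVEC endothelial cells and mesenchymal stem cells, treated with drug combinations. Concentrations descend in half-log steps from near clinical Cmax, or from 10 microM if Cmax unknown.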
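Also: spheroids exposed to compounds for 7 days before readout.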

C=CC(=O)Nc1cc(Nc2nccc(-c3cn(C)c4ccccc34)n2)c(OC)cc1N(C)CCN(C)C + CN1CCN(c2cc(C(=O)Nc3cc4cc(-c5cnn(C)c5)ccc4cn3)ccn2)CC1
IC50 (second compound 0.0316 µM): > 300 nM
IC50 (second compound 0.1 µM): > 300 nM
IC50 (second compound 0.316 µM): < 0.949 nM
IC50 (second compound 1 µM): < 0.949 nM
IC50 (second compound 3.16 µM): < 0.949 nM
IC50 (second compound 10 µM): < 0.949 nM
viability, T/C (second compound 0.0316 µM, first compound 0.000949 µM): 95.6%
viability, T/C (second compound 0.0316 µM, first compound 0.003 µM): 107%
viability, T/C (second compound 0.0316 µM, first compound 0.00949 µM): 96.8%
viability, T/C (second compound 0.0316 µM, first compound 0.03 µM): 104%
viability, T/C (second compound 0.0316 µM, first compound 0.0949 µM): 102%
viability, T/C (second compound 0.0316 µM, first compound 0.3 µM): 98.3%
viability, T/C (second compound 0.1 µM, first compound 0.000949 µM): 72.8%
viability, T/C (second compound 0.1 µM, first compound 0.003 µM): 76.6%
viability, T/C (second compound 0.1 µM, first compound 0.00949 µM): 77.1%
viability, T/C (second compound 0.1 µM, first compound 0.03 µM): 77.1%
viability, T/C (second compound 0.1 µM, first compound 0.0949 µM): 79%
viability, T/C (second compound 0.1 µM, first compound 0.3 µM): 72%
viability, T/C (second compound 0.316 µM, first compound 0.000949 µM): 1.85%
viability, T/C (second compound 0.316 µM, first compound 0.003 µM): 4.04%
viability, T/C (second compound 0.316 µM, first compound 0.00949 µM): 1.97%
viability, T/C (second compound 0.316 µM, first compound 0.03 µM): 3.67%
viability, T/C (second compound 0.316 µM, first compound 0.0949 µM): 1.83%
viability, T/C (second compound 0.316 µM, first compound 0.3 µM): 1.5%
viability, T/C (second compound 1 µM, first compound 0.000949 µM): 0.13%
viability, T/C (second compound 1 µM, first compound 0.003 µM): 0.14%
viability, T/C (second compound 1 µM, first compound 0.00949 µM): 0.14%
viability, T/C (second compound 1 µM, first compound 0.03 µM): 0.1%
viability, T/C (second compound 1 µM, first compound 0.0949 µM): 0.12%
viability, T/C (second compound 1 µM, first compound 0.3 µM): 0.12%
viability, T/C (second compound 3.16 µM, first compound 0.000949 µM): 0.15%
viability, T/C (second compound 3.16 µM, first compound 0.003 µM): 0.21%
viability, T/C (second compound 3.16 µM, first compound 0.00949 µM): 0.2%
viability, T/C (second compound 3.16 µM, first compound 0.03 µM): 0.2%
viability, T/C (second compound 3.16 µM, first compound 0.0949 µM): 1.74%
viability, T/C (second compound 3.16 µM, first compound 0.3 µM): 0.35%
viability, T/C (second compound 10 µM, first compound 0.000949 µM): 0.31%
viability, T/C (second compound 10 µM, first compound 0.003 µM): 0.26%
viability, T/C (second compound 10 µM, first compound 0.00949 µM): 0.21%
viability, T/C (second compound 10 µM, first compound 0.03 µM): 0.29%
viability, T/C (second compound 10 µM, first compound 0.0949 µM): 2.12%
viability, T/C (second compound 10 µM, first compound 0.3 µM): 2.07%

Nc1ccccc1NC(=O)c1ccc(CNC(=O)OCc2cccnc2)cc1 + CN1CCN(c2cc(C(=O)Nc3cc4cc(-c5cnn(C)c5)ccc4cn3)ccn2)CC1
IC50 (second compound 0.0316 µM): 2100 nM
IC50 (second compound 0.1 µM): 1140 nM
IC50 (second compound 0.316 µM): < 31.6 nM
IC50 (second compound 1 µM): < 31.6 nM
IC50 (second compound 3.16 µM): < 31.6 nM
IC50 (second compound 10 µM): < 31.6 nM
viability, T/C (second compound 0.0316 µM, first compound 0.0316 µM): 95.7%
viability, T/C (second compound 0.0316 µM, first compound 0.1 µM): 92.8%
viability, T/C (second compound 0.0316 µM, first compound 0.316 µM): 89.9%
viability, T/C (second compound 0.0316 µM, first compound 1 µM): 74.2%
viability, T/C (second compound 0.0316 µM, first compound 3.16 µM): 36.7%
viability, T/C (second compound 0.0316 µM, first compound 10 µM): 10.9%
viability, T/C (second compound 0.1 µM, first compound 0.0316 µM): 73.5%
viability, T/C (second compound 0.1 µM, first compound 0.1 µM): 76.7%
viability, T/C (second compound 0.1 µM, first compound 0.316 µM): 60.5%
viability, T/C (second compound 0.1 µM, first compound 1 µM): 57.6%
viability, T/C (second compound 0.1 µM, first compound 3.16 µM): 24.1%
viability, T/C (second compound 0.1 µM, first compound 10 µM): 2.49%
viability, T/C (second compound 0.316 µM, first compound 0.0316 µM): 1.31%
viability, T/C (second compound 0.316 µM, first compound 0.1 µM): 1.59%
viability, T/C (second compound 0.316 µM, first compound 0.316 µM): 0.45%
viability, T/C (second compound 0.316 µM, first compound 1 µM): 2.31%
viability, T/C (second compound 0.316 µM, first compound 3.16 µM): 0.06%
viability, T/C (second compound 0.316 µM, first compound 10 µM): 0.18%
viability, T/C (second compound 1 µM, first compound 0.0316 µM): 0.11%
viability, T/C (second compound 1 µM, first compound 0.1 µM): 0.84%
viability, T/C (second compound 1 µM, first compound 0.316 µM): 0.11%
viability, T/C (second compound 1 µM, first compound 1 µM): 0.08%
viability, T/C (second compound 1 µM, first compound 3.16 µM): 0.05%
viability, T/C (second compound 1 µM, first compound 10 µM): 0.07%
viability, T/C (second compound 3.16 µM, first compound 0.0316 µM): 0.13%
viability, T/C (second compound 3.16 µM, first compound 0.1 µM): 0.33%
viability, T/C (second compound 3.16 µM, first compound 0.316 µM): 0.2%
viability, T/C (second compound 3.16 µM, first compound 1 µM): 0.11%
viability, T/C (second compound 3.16 µM, first compound 3.16 µM): 0.1%
viability, T/C (second compound 3.16 µM, first compound 10 µM): 0.77%
viability, T/C (second compound 10 µM, first compound 0.0316 µM): 0.13%
viability, T/C (second compound 10 µM, first compound 0.1 µM): 0.68%
viability, T/C (second compound 10 µM, first compound 0.316 µM): 0.22%
viability, T/C (second compound 10 µM, first compound 1 µM): 0.29%
viability, T/C (second compound 10 µM, first compound 3.16 µM): 0.22%
viability, T/C (second compound 10 µM, first compound 10 µM): 0.18%
